Assays:
[1] = Plasma pharmacokinetics and tissue distribution 2 h after oral cabazitaxel 10 mg/kg with vehicle or 25 mg/kg ritonavir in wild-type, Oatp1a/1b−/−, Oatp1a/1b/2b1−/−, OATP1B1- and OATP1B3-transgenic mice; format: in vivo; conditions: for Cmax / Tmax / AUC(0-t): male, FVB, mouse, plasma, po, 10 mg/kg; for AUC(0-t): read-out: AUC0-2 h; for enhancement of AUC0-2h by ritonavir: ritonavir 25 mg/kg compared to vehicle group; for CLiver / Cbrain / Pbrain, brain accumulation per h / SIC (% of dose), small intestinal content: 2 h
Procedure: All animals were fasted 2 to 3 hours prior to the start of the experiment to minimize variation in absorption after oral administration. […] Subsequently, cardiac puncture was performed with a heparinized needle and syringe collecting a final blood sample. […] All samples were stored at −30° C. until analysis.
Differences were considered statistically significant when P<0.05. All data are presented as geometric mean±SD.

[2] = in vivo; conditions: mouse; for AUC(0-t) / AUC0-24 h: po; for AUC(0-t): AUC0-24 h
Procedure: (§1) The Jevtana (10 mg/mL) solution contains 0.26 mg/mL polysorbate 80 and 15% (w/v) ethanol, and is adjusted to pH 2-6 with citric acid. […] The stock solution was further diluted 5-fold with water to reach a 2.5 mg/mL dosing solution for oral administration. The vehicle solution only consists of polysorbate 80, ethanol and water (1:1:8, v/v/v). […] All dosing solutions were prepared freshly on the day of the experiment.
(§2) At the termination time point of 24 hours, mice were anesthetized using an isoflurane evaporator with 3% isoflurane with 0.8 L/min air and 0.3 L/min oxygen. A final blood sample was taken using cardiac puncture, using Eppendorf tubes previously prepared with heparin as an anticoagulant. Subsequently, the anesthetized mice were sacrificed by cervical dislocation and the tissues of interest were collected. Brain, liver, spleen, kidney, small intestine, and testis were collected. The small intestinal content (SIC) was separately collected by removing this from the small intestinal tissue, which was subsequently rinsed with saline to remove possibly fecal residue. The blood samples were centrifuged at 9,000×g for 6 minutes at 4° C., and the plasma fraction was isolated and stored at −30° C. until analysis. Brain, liver, spleen, kidney, small intestinal tissue, SIC, and testis were homogenized in a FastPrep-24™ 5G homogenizer (M. P. Biomedicals, Santa Ana, CA, USA) for 1 min with 1, 3, 1, 2, 3, 2, and 1 mL of 2% (w/v) BSA in Milli-Q water, respectively. Until analysis of the samples, they were all stored at −30° C.
(§3) Pharmacokinetic parameters were estimated by non-compartmental analysis using the software package of PK solutions 2.0.2 (SUMMIT, Research Service). The area under the curve (AUC) of the plasma-concentration time curve for all the compounds was calculated using the linear trapezoidal rule without extrapolating to infinity. The peak plasma concentration (Cmax) and the time to reach peak plasma concentration (Tmax) were obtained directly from the individual raw data. For the statistical analysis and the graphs GraphPad Prism 9 (GraphPad Software Inc., La Jolla, CA, USA) was used. The statistics for the comparison of multiple groups were calculated with the one-way analysis of variance (ANOVA), whereas Sidak's post hoc correction was performed. Log-transformation before statistical analysis was applied, when variances within the groups were not homogeneously distributed. Differences were considered statistically significant when P<0.05. All data are presented as geometric mean±SD.

[3] = in vivo; conditions: male, mouse; for Kp at 24 h: Brain-to-plasma ratio
Procedure: as §1, §2, §3
The last parameter is in many cases the most useful, as it takes the overall exposure into account.

[4] = input of human simulation, cited from earlier work
[5] = OATP1B3-transgenic mice, ritonavir 25 mg/kg oral, cabazitaxel 10 mg/kg oral
[6] = OATP1B3-transgenic mice, vehicle pretreatment, oral 10 mg/kg cabazitaxel
[7] = OATP1B3-transgenic mice, vehicle, cabazitaxel 10 mg/kg oral
[8] = Oatp1a/1b/2b1−/− mice, ritonavir 25 mg/kg oral, cabazitaxel 10 mg/kg oral
[9] = Oatp1a/1b/2b1−/− mice, vehicle pretreatment, oral 10 mg/kg cabazitaxel
[10] = Oatp1a/1b/2b1−/− mice, vehicle, cabazitaxel 10 mg/kg oral
[11] = Oatp1a/1b−/− mice, ritonavir 25 mg/kg oral, cabazitaxel 10 mg/kg oral
[12] = Oatp1a/1b−/− mice, vehicle pretreatment, oral 10 mg/kg cabazitaxel
[13] = Oatp1a/1b−/− mice, vehicle, cabazitaxel 10 mg/kg oral
[14] = wild-type mice, ritonavir 25 mg/kg oral, cabazitaxel 10 mg/kg oral
[15] = wild-type mice, vehicle pretreatment, oral 10 mg/kg cabazitaxel
[16] = wild-type mice, vehicle, cabazitaxel 10 mg/kg oral
[17] = Cyp3aXAV vs Cyp3a−/− (FVB background)
[18] = Cyp3aXAV vs Cyp3a−/− (FVB background), 24 h

CO[C@H]1C(=O)[C@]2(C)[C@@H](OC)C[C@H]3OC[C@@]3(OC(C)=O)[C@H]2[C@H](OC(=O)c2ccccc2)[C@]2(O)C[C@H](OC(=O)[C@H](O)[C@@H](NC(=O)OC(C)(C)C)c3ccccc3)C(C)=C1C2(C)C [cabazitaxel] showed a Cmax [1, 5] of 3860 nM, a Tmax [1, 5] of 60 min and a Cmax [1, 6] of 2690 ± 761 nM. The Tmax [1, 6] was 27.5 min, the AUC(0-t) ([1]; OATP1B3-transgenic mice, vehicle pretreatment, oral 10 mg/kg cabazitaxel, 0-2 h) was 3.51 ± 1.19 µM·h and the Cmax [1, 7] was 2690 nM. The Tmax [1, 7] was 27.5 min, the Cmax [1, 8] was 4270 nM and the Tmax [1, 8] was 70 min. The Cmax [1, 9] was 2740 ± 1100 nM, the Tmax [1, 9] was 26.7 min and the AUC(0-t) ([1]; Oatp1a/1b/2b1−/− mice, vehicle pretreatment, oral 10 mg/kg cabazitaxel, 0-2 h) was 2.88 ± 0.616 µM·h. It also gave a Cmax [1, 10] of 2740 nM, a Tmax [1, 10] of 26.7 min and a Cmax [1, 11] of 4700 nM. For the same compound, the Tmax [1, 11] was 80 min, the Cmax [1, 12] was 2120 ± 398 nM and the Tmax [1, 12] was 24.2 min. For the same compound, the AUC(0-t) ([1]; Oatp1a/1b−/− mice, vehicle pretreatment, oral 10 mg/kg cabazitaxel, 0-2 h) was 2.62 ± 0.417 µM·h, the Cmax [1, 13] was 2120 nM and the Tmax [1, 13] was 24.2 min. It also gave a Cmax [1, 14] of 4530 nM, a Tmax [1, 14] of 120 min and a Cmax [1, 15] of 2820 ± 694 nM. It also gave a Tmax [1, 15] of 25.8 min, an AUC(0-t) ([1]; wild-type mice, vehicle pretreatment, oral 10 mg/kg cabazitaxel, 0-2 h) of 3.28 ± 1.32 µM·h and a Cmax [1, 16] of 2820 nM. The Tmax [1, 16] was 25.8 min, the AUC(0-t) ([1]; wild-type, wild-type mice, ritonavir 25 mg/kg oral, cabazitaxel 10 mg/kg oral) was 7.62 µM·h and the AUC(0-t) ([1]; wild-type, wild-type mice, vehicle, cabazitaxel 10 mg/kg oral) was 3.28 µM·h. For the same compound, the “enhancement of AUC0-2h by ritonavir” value ([1]; transgenic OATP1B1 mice) was 2.1 fold, the “enhancement of AUC0-2h by ritonavir” value ([1]; transgenic OATP1B3 mice) was 1.9 fold and the CLiver [1, 14] was 21554 pmol/g. The Cbrain [1, 14] was 235 pmol/g, the “Pbrain, brain accumulation per h” value [1, 14] was 0.026 h⁻¹ and the “SIC (% of dose), small intestinal content” value [1, 14] was 1.34 % of dose. The CLiver [1, 16] was 2703 pmol/g, the Cbrain [1, 16] was 50.0 pmol/g and the “Pbrain, brain accumulation per h” value [1, 16] was 0.013 h⁻¹. The “SIC (% of dose), small intestinal content” value [1, 16] was 1.14 % of dose, the “increase in AUC0-24h” value ([2]; male, Cyp3aXAV (FVB background), 10 mg/kg) was 10.1 fold and the AUC(0-t) ([2]; male, Cyp3aXAV (human CYP3A in Cyp3a−/−, FVB background), 10 mg/kg) was 1.24 ± 0.177 µM·h. It also gave an AUC0-24 h ([2]; male, FVB, Cyp3aXAV, 10 mg/kg) of 12.515 µM·h, an AUC(0-t) ([2]; male, FVB, Cyp3aXAV, 10 mg/kg) of 12.5 ± 5.41 µM·h and an AUC0-24 h ([2]; male, FVB, wild-type, 10 mg/kg) of 72.771 µM·h. The AUC(0-t) ([2]; male, FVB, wild-type, 10 mg/kg) was 72.8 ± 2.62 µM·h, the “alteration in AUC0-24h” value ([2]; 1 mg/kg) was “no alteration” and the Kp at 24 h ([3]; Cyp3aXAV (FVB background), po, 10 mg/kg) was 1.52. The “reduced AUC0-24h” value [3, 17] was 88.8 fold, the “reduced Cmax” value [3, 17] was 12.1 fold and the “decrease of liver concentration” value [3, 18] was 341.2 fold. For the same compound, the “reduction of brain exposure” value [3, 18] was 167.6 fold, the Kp at 24 h ([3]; Cyp3a−/− (FVB background), po, 10 mg/kg) was 0.231 and the Tmax ([3]; Cyp3a−/− (FVB background), po, 10 mg/kg, Tmax) was 125 min. The Kp at 24 h ([3]; wild-type FVB, po, 10 mg/kg) was 1.17, the “CLint, Intrinsic clearance” value ([4]; calculated from CL 48.5 and QH 80, sources (17, 18)) was 123.17 L/h and the “IIV CL” value [4] was 38.8 CV%. The “Lag-time on Ka” value ([4]; observed for indinavir PK when co-administered with ritonavir, source (27)) was 0.483 h, the “Ka, First order absorption rate constant” value ([4]; reported for docetaxel, source (26)) was 0.7 h⁻¹ and the “IIV K12” value ([4]; source (17)) was 84.0 CV%. For the same compound, the “IIV K13” value ([4]; source (17)) was 64.2 CV%, the “IIV K31” value ([4]; source (17)) was 28.2 CV% and the “IIV VI” value ([4]; source (17)) was 93.4 CV%. For the same compound, the “IOV CL” value ([4]; source (17)) was 19.4 CV%, the “IOV V1” value ([4]; source (17)) was 45.3 CV% and the K12 ([4]; source (17)) was 2.48 h⁻¹. For the same compound, the K13 ([4]; source (17)) was 4.84 h⁻¹, the K21 ([4]; source (17)) was 0.604 h⁻¹ and the K31 ([4]; source (17)) was 0.0266 h⁻¹. For the same compound, the V1 ([4]; source (17)) was 26 L.

Reference: US20240226072A1 (Stichting Het Nederlands Kanker Instituut, priority 2022, published 2024)
